Results reported in patent US20120283096A1, “AGENT FOR IMPROVING PLANT GROWTH, SEEDS, AND METHOD FOR IMPROVING PLANT GROWTH” (Incorporated Administrative Agency National Agricu lture …, priority 2010, published 2012).

Tests used:
decay of paddy seeds = assay: Decay-inhibiting effect in tank farming without soil (Example 3); conditions: seeds covered with substance, soaked two weeks in water at 30° C.
Experimental: (§1) The decay-inhibiting effect of molybdenum-containing substances in tank farming without soil was examined.
(§2) The possibility of growth and the inhibition of decay were determined in the same manner as above.

paddy seeds = assay: Possibility of growth of paddy seeds in tank farming without soil (Example 3); conditions: in vivo
Experimental: as §1, §2

paddy rice [1] = assay: Seedling establishment of coated paddy seeds planted in a paddy field (Example 4-5, FIG. 22); assay type: in vivo; conditions: dry seeds coated with clay plus 0.1 mmol/g molybdenum; kept submerged, about one month after seeding; versus WITHOUT MATERIAL and oxygen generating agent (Cal)
Experimental: Dry paddy seeds (branded as Hinohikari) were prepared.
Separately, dry seeds (WITHOUT MATERIAL) coated solely with clay containing no molybdenum were also prepared. Furthermore, dry seeds (Cal) coated with an oxygen generating agent (Calper Powder 16, Hodogaya UPL Co., Ltd.) the same weight per dry seeds were also prepared. Calper Powder 16 is an oxygen generating agent composed mainly of calcium peroxide.
These dry seeds were planted in puddled soil in a paddy field in Chikugo City, Fukuoka Prefecture, by using a simultaneous puddling and planting point sowing machine. By preparing the seeds as described above and planting them by using a point sowing machine, the amount of seeding per unit area of the paddy field can be substantially uniformed. It should be noted that prior to soil puddling, 4 g/m^2 of ammonium sulfate as nitrogen and potassium sulfate containing potassium equivalent to 8 g/m^2 as potassium oxide had been applied to the paddy field. After seeding, the seeds were kept submerged without draining the water.

paddy rice [2] = assay: Seedling establishment of coated paddy seeds in submerged soil containers (Examples 4-1 to 4-4b, FIGS. 11, 14-19c); assay type: in vivo
Experimental: The germinated paddy seeds were soaked for one minute in a tenfold diluted solution of a commercially available laundry starch (manufactured by Rocket Soap Co., Ltd.; My Laundry Starch) containing approximately a little less than 10% by weight of polyvinyl alcohol, centrifuged at 1000 rpm for removal of the extra solution, and, immediately after that, lightly covered with different amounts of ammonium molybdophosphate, whereby seeds with different amounts of ammonium molybdophosphate were prepared.
(§3) It should also be noted that in each of FIGS. 14 through 15b, the horizontal axis represents the number of moles (mmol) of molybdenum or tungsten that adhered per gram of dry seed. In each of FIGS. 14 through 15b, the dots correspond to the numbers of moles of 0, 0.02, 0.05, 0.1, 0.2, 0.5, 1, and 2 mmol, starting from the left.
as §3, with “should” for “should also”, “16” for “14”, “18,” for “15b,”, “molybdenum” for “molybdenum or tungsten”
It should be noted that in FIG. 19a, the horizontal axis represents the number of moles (mmol) of molybdenum that adhered per gram of dry seed. In FIG. 19a, the dots correspond to the numbers of moles of 0, 0.02, 0.05, 0.1, 0.2, 0.5, 1, and 2 mmol, starting from the left.
The resulting seeds were allowed to spend time in a sufficiently wet condition so that the iron rusted, and then allowed to further spend overnight. […] Six containers were allotted for each condition, and the proportion of seedling establishment and the standard error were examined. It should be noted that in FIG. 19b, the horizontal axis represents the number of moles (mmol) of molybdenum that adhered per gram of dry seed. In FIG. 19b, the dots correspond to the numbers of moles of 0, 0.02, 0.05, 0.1, 0.2, 0.5, 1, and 2 mmol, starting from the left.
Six containers were allotted for each condition, and the proportion of seedling establishment and the standard error were examined. It should be noted that in FIG. 19c, the horizontal axis represents the actual weight ratios of 25 wt % calcium peroxide that adhered with respect to the weight of dry seed. In FIG. 19c, the dots correspond to the actual weight ratios of 25 wt % calcium peroxide of 0, 0.01, 0.02, 0.05, 0.1, 0.2, 0.5, and 1 time, starting from the left.

soybean = assay: Seedling establishment of soybean seeds submerged for two days (Example 6a-1, FIG. 20e); assay type: in vivo; conditions: 0.01 mmol to 0.5 mmol molybdenum per gram of dry seed, 25° C., versus untreated seeds
Experimental: Soil was prepared in the same manner as in Example 6-1. Next, soybean seeds (branded as Fukuyutaka) not subjected to treatment such as soaking in advance were soaked for one minute in a tenfold diluted solution of a commercially available laundry starch (manufactured by Rocket Soap Co., Ltd.; My Laundry Starch) containing approximately a little less than 10% by weight of polyvinyl alcohol. Then, the seeds were spin-dried for thirty seconds in a commercially available washing machine for removal of the extra water. […] These seeds were buried so that the upper edge of each seed was at the same height as the soil surface. In an artificially-lit (amount of light 0.4 mmol/m^2/s, lit for twelve hours per day) room at 25° C., water was added immediately after seeding so that the surface water was 15 mm high. After two days, the surface water was sucked up with a pipette for removal. Six containers were allotted for each condition, and the proportion of seedling establishment (proportion of individual plants that survived) was measured two weeks after seeding. It should be noted that in FIG. 20e, the horizontal axis represents the number of moles (mmol) of molybdenum that adhered per gram of dry seed. In FIG. 20e, the dots correspond to the numbers of moles of 0 (UNTREATED), 0.01, 0.02, 0.05, 0.1, 0.2, and 0.5 mmol, starting from the left. […]

wheat = assay: Seedling establishment of wheat seeds in humid soil (Example 6-1, FIG. 20b); assay type: in vivo; conditions: 0.01 mmol to 0.5 mmol molybdenum per gram of dry seed, 20° C., after two weeks
Experimental: (§4) As in Example 4-1, ammonium sulfate in an equivalent amount of 10 g/m^2 in terms of nitrogen and potassium chloride equivalent to 5 g/m^2 of potassium as potassium oxide were added as a solution to paddy humid soil in terms of 100 kg/m^2 of dry soil with a soil-to-liquid ratio of 0.7. The soil was placed into each container (in the shape of a cylinder approximately 7 cm in diameter) in an amount equivalent to 100 g of dry soil. The soil surface was flattened by giving it a slight press with a flat plate. Then, the soil was left at rest for one day at 4° C. […] The seeds were then half-buried in the soil. After that, at a constant temperature of 20° C., the water level was kept by adding water to such an extent that the seeds were slightly covered with water. Six containers were allotted for each condition, and the proportion of seedling establishment (proportion of individual plants that survived) was measured after two weeks. It should be noted that in each of FIGS. 20a and 20b, the horizontal axis represents the number of moles (mmol) of molybdenum that adhered per gram of dry seed. In each of FIGS. 20a and 20b, the dots correspond to the numbers of moles of 0, 0.01, 0.02, 0.05, 0.1, 0.2, and 0.5 mmol, starting from the left. […]

barley = assay: Seedling establishment of barley seeds in humid soil (Example 6-1, FIG. 20a); assay type: in vivo; conditions: 0.01 mmol to 0.5 mmol molybdenum per gram of dry seed, 20° C., after two weeks
Experimental: as §4

paddy rice [3] = assay: Effect of sulfate ions in paddy soil on seedling establishment (Example 1-1, FIG. 1); assay type: in vivo
Experimental: The effect of concentrations of sulfate ions, which serve as a substrate for sulfide ions, in the soil solution on the percentage of seedling establishment were examined for each of the following cases: unsterilized paddy soil placed at a constant temperature of 20° C.; unsterilized paddy soil placed at a constant temperature of 30° C., unsterilized paddy soil placed in an outdoor location (at a mean temperature of 25.4° C. for the duration of examination); and sterilized paddy soil placed at a constant temperature of 20° C.
First, ammonium sulfate solutions in different concentrations were added to samples of paddy humid soil (obtained from a paddy field in Chikugo City, Fukuoka Prefecture, Japan; refrigerated in the form of humid soil until just before its use) with a soil-to-liquid ratio of 1:1.5, so that the resulting supernatant liquids above the samples of soil thus adjusted had varying concentrations of sulfate ions. The amounts of ammonium sulfate added to the samples of soil were equivalent to 0, 2, 4, 7, 10, 15, and 20 g/m^2 in terms of nitrogen, respectively, on the condition that the weight of dry soil is 100 kg/m^2. At the same time as ammonium sulfate, potassium in an amount of 5 g/m^2 in terms of potassium oxide was added as potassium chloride. Before the addition of the solutions to the samples of soil, some of the soil had been sterilized by being autoclaved for one hour at 121° C.
Each of the samples of soil thus adjusted was placed into a container (in the shape of a cylinder approximately 7 cm in diameter) in an amount equivalent to 120 g of dry soil, shaken for approximately one hour, and left at rest for two days at 4° C. On this condition, the resulting soil layer was approximately 4 cm thick and the resulting water layer above the soil surface was approximately 1 cm thick. Paddy rice seeds (branded as Hinohikari) were sterilized by being soaked in 70% ethanol for ten minutes and then in a fivefold diluted solution of sodium hypochlorite (purchased from Wako Pure Chemical Industries, Ltd.) for ten minutes. The paddy rice seeds were then slightly germinated by being soaked in water at 10° C. for five days and then in water at 30° C. for two days. The germinated unhusked rice thus obtained was used in the following testing.
Nine paddy rice seeds per container were planted at a depth of 15 mm at intervals of approximately 2 cm in each of the samples of soil thus adjusted, and the seed holes were closed by lightly shaking the sample of soil. The samples of unsterilized soil were left at rest at a constant temperature of 20° C. or 30° C., and the samples of sterilized soil were left at a constant temperature of 20° C. in incubators in which fluorescent lights were on for twelve hours per day. […]

sulfide ion generation = assay: Blackening (ferric sulfide) of areas around paddy seeds versus sulfate ion concentration (FIG. 2); conditions: unsterilized soil, 30° C., one week after seeding, supernatant concentration
Experimental: In the same manner as above, ammonium sulfate was applied to samples of unsterilized soil in amounts of 0, 0.75, 1.5, and 3 mol/m^2, respectively, and the samples of unsterilized soil were placed at rest at a constant temperature of 30° C. The supernatant liquids obtained after shaking the samples of soil thus adjusted had sulfate ion concentrations shown in FIG. 2. However, since methylene blue decolorizes in a reduced state, methylene blue weighing 0.1% of dry soil was added to each sample of soil so that a reduced state of the soil could be detected. […] It should be noted that methylene blue is known to decolorize at an oxidation-reduction potential of 0.05 V or lower with a pH of approximately 6. […] Therefore, it is judged that in this experimental environment, an oxidation-reduction potential as normalized with a pH of 7 is at least temporarily 0 mV or lower.

| Possibility of growth, Amount of molybdenum or tungsten added to seed (paddy seeds) [mmol/g] | Structure (SMILES) | Inhibition of decay, Amount of molybdenum or tungsten added to seed (decay of paddy seeds) [mmol/g] | seedling establishment (paddy rice [1]) | molybdenum amount leading to improvements in seedling establishment (paddy rice [2]; dry seeds coated with mixture with reduced iron (half the weight of dry seeds), 30° C., FIG. 19b) [mmol/g] | proportion of seedling establishment (paddy rice [2]; dry seeds, mixture of 0.1 mmol/g molybdenum oxide and 25 wt % calcium peroxide at 0.1 or less time the weight of dry seed, 30° C.) [%] | proportion of seedling establishment (paddy rice [2]; mixture of 0.1 mmol/g molybdenum oxide and 25 wt % calcium peroxide at 0.2 to 0.5 time the weight of dry seed, versus absence of molybdenum oxide) | proportion of seedling establishment (soybean) | proportion of seedling establishment (wheat) | proportion of seedling establishment (barley) | seedling establishment (paddy rice [3]; sterilized soil, 20° C., regardless of sulfate ion concentration) | seedling establishment (paddy rice [3]; unsterilized soil, constant 20° C., sulfate ion concentration higher than 2 mM, after 21 days) | proportion of seedling establishment (paddy rice [3]; unsterilized soil, constant 30° C. or outdoor, sulfate ion concentration higher than 3 mM, after 21 days) [%] | proportion of seedling establishment (paddy rice [3]; unsterilized soil, sulfate ion concentration of 1 mM, regardless of the conditions (20° C., 30° C., outdoor), after 21 days) | sulfate ion concentration at which a blackened portion (ferric sulfide) appears around the seed (sulfide ion generation) [mM] |
| --- | --- | --- | --- | --- | --- | --- | --- | --- | --- | --- | --- | --- | --- | --- |
| 0.07 | [O]=[Mo](=[O])=[O] [Molybdenum oxide, Molybdenum oxide (VI)] | <0.01 | obvious improvements in seedling establishment | ≥ 0.5 | ≥ 40 | higher proportion of seedling establishment | improvements in proportion of seedling establishment | improvements in proportion of seedling establishment | improvements in proportion of seedling establishment | – | – | – | – | – |
| – | N.N.O=S(=O)(O)O [sulfate ions, ammonium sulfate] | – | – | – | – | – | – | – | – | no decrease in seedling establishment | substantially no seedling establishment | ≤ 10 | drastic decreases in proportion of seedling establishment | ≥ 0.91 |
